“Also recorded” adds a separate entry of the source. Where two headings read alike, the source gives them in different places.
Tests used:
Assay type in all cases: cell-based, human
[1] = test system: HUVEC primary endothelial cells; assay: 72 h XTT assay for Huvec cell proliferation
Experimental: FIG. 2A illustrates a microtiter plate 72 hour (h) XTT assay for Huvec cell proliferation (2500 cells/well seeded), showing serial dilutions of structurally diverse marine natural compounds. […] FIG. 2B graphically illustrates the data for this study.
Cytotoxicity Assay. Cytotoxicity of ScA was assessed using the XTT cell proliferation assay. Briefly cells were plated on 96 well plates (5,000 per well) and incubated over night at 37° C. to allow for attachment and spreading. After 24 h, ScA was added from a DMSO stock, previously frozen at −80C as added directly from serial dilutions in DMSO at concentrations ranging from 100 uM to 100 fM. After 72 h, XTT (Aldrich Chemicals) was added to a final concentration of 250 ug/well. The plates were then incubated under standard tissue culture conditions until the control wells (DMSO) reached an OD value between 1.0-1.5. as measured at 450 nm using a microtiter plate reader. The cell viability-drug dilution profiles were obtained from sigma plots, and drug concentrations which inhibited growth by 50% were calculated from multiple runs. (IC50)

[2] = test system: HUVEC cells; assay: endothelial cell tube formation on Matrigel
Experimental: Endothelial Cell Tube Formation. 96-well plates were coated with 200 uL matrigel per well and stored at 4° C. until use. HUVEC cells were harvested and cell suspensions were prepared at a density of 200,000/ml., and added at 100 ul per well to the plates. […] The plates were incubated at 37° C. under standard incubator conditions and the results were observed microcopically for tube formation.

[3] = test system: A-549 cells; assay: cell toxicity studies by microscopy; conditions: for cell state by microscopy: 24 h
Experimental: FIG. 7 illustrates cell toxicity studies using A-549 cells and somocystinamide A (ScA); FIG. 7A illustrates microscopy images of cells with DMSO (1%) as a control at 24 h; FIG. 7B-ScA (WG-144) on A-549 cells at 100 nM 24 h; FIG. 7C-ScA (WG-144) on A549 cells 1.0 uM 24 h; FIG. 7D-ScA (WG-144) on A549 cells, 10 uM, 24 h. In FIG. 7A, the negative control (no ScA) the live cells are confluent.
FIG. 28(B): A549 cells were fixed and costained using antibodies directed against ceramide (red channel) (Bars in A/B=[…]). Arrows indicate regions of “blebbing.” The nuclear compartment was visualized using DAPI to stain DNA (blue channel). The assessments were performed two hours after treatment with 300 nM ScA. FIG. 28(C): Immunoblot analysis of Jurkat cells was performed following treatment with 100 nM ScA. 25 μg of cell lysates was probed for caspases 8, 3 and 9 and for PARP and actin (loading control) as indicated. FIG. 28(D): Caspase 8 deficient (Casp 8), FADD deficient (FADD −) or parental Jurkat cells (Jurkat) were incubated with 50 or 300 nM for 6 hours and analyzed for the presence of apoptotic cells via FACs analysis of DNA content. Results shown are the mean and standard error of triplicate determinations. FIG. 28(E): A549 cells subjected to lentivirus-delivered shRNA-mediated knockdown of caspase 8, or treated with a scrambled shRNA lentivirus. Cells were then cultured in the presence of increasing doses of ScA, as indicated. Viability was measured by XTT assay after 72 hours, and normalized to controls not treated with drug. FIG. 28(F): similarly, the viability of neuroblastoma cultures deficient in caspase expression, or reconstituted for caspase 8 expression, was determined as for the A549 cells above. Both experiments are representative, with each point shown the mean±SE of triplicate wells.

`C=CC/C=C/N(C)C(=O)CCCCCCCC/C=C/[C@H](CSSC[C@@H](/C=C/CCCCCCCCC(=O)N(C)/C=C/CC=C)NC(C)=O)NC(C)=O` [somocystinamide A, Somocystinamide A] was tested, and the “cytotoxicity, concentration range” value ([1]; 72 h XTT, 2500 cells/well, FIG. 2) was “cytotoxicity in the nanomolar concentration range”, the IC50 ([1]; Homo sapiens, HUVEC, anti-proliferative effect, FIG. 6, read-out: IC50) was 4 pM and the IC50 ([1]; cultured endothelial cells, XTT 72 hours) was “picomolar range”. For the same compound, the “tube formation of HUVEC/matrigel” value ([2]; 1 μM, 100 μM and 10 nM, FIG. 3) was “inhibits tube formation”, the “endothelial cell tube formation” value ([2]; 48 hours, FIG. 30B, listed as ScA) was “potently blocked endothelial cell tube formation; also recorded: endothelial cell tube formation was disrupted in dose-dependent manner” and the “cell morphology, bright field microscopy” value ([3]; 100 nM ScA, FIG. 28A) was “induces a blebbing morphology”. The “cell state by microscopy” value ([3]; 100 nM) was “transitioning to apoptosis”, the “cell state by microscopy” value ([3]; 1.0 uM) was “in a state of apoptosis but no lysis” and the “cell state by microscopy” value ([3]; 10 uM) was “in total lysis”.

— patent US9045401B2, “Methods for treating or ameliorating a melanoma and killing melanoma cells” (THE REGENTS OF THE UNIVERSITY OF CALIFORNIA, priority 2007, dated 2015)
